Results taken from article PMC11396129, “Oxindole–benzothiazole hybrids as CDK2 inhibitors and anticancer agents: design, synthesis and biological evaluation” (BMC Chemistry, 2024).

Experiments:
U251 = experiment: NCI 60 panel growth inhibition (SRB), CNS cancer; type: cell-based, human; conditions: U251, 10 μM
Outline: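 24 h post-seeding: Tz fixation, drug added at five concentrations. Adherent lines stopped with cold TCA, washed, dried, SRB read. Growth % vs control and Tz; TGI at Ti = Tz.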

OVCAR-3 = experiment: NCI 60 panel growth inhibition (SRB), ovarian cancer; type: cell-based, human; conditions: OVCAR-3, 10 μM
Method: (§1) Screening of cytotoxic activity against a panel of sixty human tumor cell lines The selected compounds by NCI were evaluated for their anticancer activity in a two- stage process. […] Then, the output from the single dose screen is reported as a mean graph. […] Assay protocol. […] For a typical screening experiment, cells are inoculated into 96 well microtiter plates in 100 µL at plating densities ranging from 5000 to 40,000 cells/well depending on the doubling time of individual cell lines. […] After 24 h, two plates of each cell line are fixed in situ with TCA, to represent a measurement of the cell population for each cell line at the time of drug addition (Tz). The experimental drugs are solubilized in dimethyl sulfoxide at 400-fold the desired final maximum test concentration and stored frozen prior to use. At the time of drug addition, an aliquot of frozen concentrate is thawed and diluted to twice the desired final maximum test concentration with complete medium containing 50 µg/mL gentamicin. Additional four, 10-fold or ½ log serial dilutions are made to provide a total of five drug concentrations plus control. […] For adherent cells, the assay is terminated by the addition of cold TCA. […] The supernatant is discarded, and the plates are washed five times with tap water and air dried. […] Using the seven absorbance measurements [time zero, (Tz), control growth, (C), and test growth in the presence of drug at the five concentration levels (Ti)], the percentage growth is calculated at each of the drug concentrations levels. Percentage growth inhibition is calculated as: [(Ti Tz)/(C–Tz)] x 100 for concentrations for which Ti>/=Tz and [(Ti-Tz)/Tz] x 100 for concentrations for which Ti < Tz. Three dose response parameters are calculated for each experimental agent. […] The drug concentration resulting in total growth inhibition (TGI) is calculated from Ti = Tz. […] Values are calculated for each of these three parameters if the level of activity is reached; however, if the effect is not reached or is exceeded, the value for that parameter is expressed as greater or less than the maximum or minimum concentration tested.

SK-OV-3 = experiment: as above; type: cell-based, human; conditions: SK-OV-3, 10 μM
Method: as §1

OVCAR-4 = experiment: as above; type: cell-based, human; conditions: OVCAR-4, 10 μM
Method: as §1

OVCAR-8 = experiment: as above; type: cell-based, human; conditions: OVCAR-8, 10 μM
Method: as §1

OVCAR-5 = experiment: as above; type: cell-based, human; conditions: OVCAR-5, 10 μM
Method: as §1

NCI/ADR-RES = experiment: as above; type: cell-based, human; conditions: 10 μM
Method: as §1

IGROV1 = experiment: as above; type: cell-based, human; conditions: IGROV1, 10 μM
Method: as §1

HL-60(TB) = experiment: NCI 60 panel growth inhibition (SRB), leukemia; type: cell-based, human; conditions: HL-60(TB), 10 μM
Method: as §1

MOLT-4 = experiment: NCI 60 panel growth inhibition (SRB), leukemia; type: cell-based, human; conditions: MOLT-4, 10 μM
Method: as §1

K-562 = experiment: NCI 60 panel growth inhibition (SRB), leukemia; type: cell-based, human; conditions: K-562, 10 μM
Method: as §1

RPMI-8226 = experiment: NCI 60 panel growth inhibition (SRB), leukemia; type: cell-based, human; conditions: RPMI-8226, 10 μM
Method: as §1

CCRF-CEM = experiment: NCI 60 panel growth inhibition (SRB), leukemia; type: cell-based, human; conditions: 10 μM
Method: as §1

SR = experiment: NCI 60 panel growth inhibition (SRB), leukemia; type: cell-based, human; conditions: 10 μM
Method: as §1

PC-3 = experiment: NCI 60 panel growth inhibition (SRB), prostate cancer; type: cell-based, human; conditions: PC-3, 10 μM
Method: as §1

DU-145 = experiment: as above; type: cell-based, human; conditions: DU-145, 10 μM
Method: as §1

NCI-H226 = experiment: NCI 60 panel growth inhibition (SRB), non-small cell lung cancer; type: cell-based, human; conditions: NCI-H226, 10 μM
Method: as §1

A549/ATCC = experiment: as above; type: cell-based, human; conditions: 10 μM
Method: as §1

NCI-H460 = experiment: as above; type: cell-based, human; conditions: NCI-H460, 10 μM
Method: as §1

EKVX = experiment: as above; type: cell-based, human; conditions: 10 μM
Method: as §1

NCI-H522 = experiment: as above; type: cell-based, human; conditions: NCI-H522, 10 μM
Method: as §1

NCI-H23 = experiment: as above; type: cell-based, human; conditions: NCI-H23, 10 μM
Method: as §1

HOP-62 = experiment: as above; type: cell-based, human; conditions: HOP-62, 10 μM
Method: as §1

HOP-92 = experiment: as above; type: cell-based, human; conditions: HOP-92, 10 μM
Method: as §1

NCI-H322M = experiment: as above; type: cell-based, human; conditions: 10 μM
Method: as §1

Row | Structure (SMILES) | GI% (U251) | GI% (OVCAR-3) | GI% (SK-OV-3) | GI% (OVCAR-4) [%] | GI% (OVCAR-8) [%] | GI% (OVCAR-5) | GI% (NCI/ADR-RES) [%] | GI% (IGROV1) | GI% (HL-60(TB)) | GI% (MOLT-4) [%] | GI% (K-562) [%] | GI% (RPMI-8226) [%] | GI% (CCRF-CEM) [%] | GI% (SR) | GI% (PC-3) [%] | GI% (DU-145) | melting point [°C] | GI% (NCI-H226) [%] | GI% (A549/ATCC) [%] | GI% (NCI-H460) | further results
1 | COc1ccc2c(c1)C(=NNC(=O)COc1ccccc1-c1nc3ccccc3s1)C(=O)N2 [Compound 9c, 2-(2-(Benzo[d]thiazol-2-yl)phenoxy)-N′-(5-methoxy-2-oxoindolin-3-ylidene)acetohydrazide] | – (GI% < 5%) | – (GI% < 5%) | – (GI% < 5%) | 32.22 | 19.15 | – (GI% < 5%) | 25.58 | – (GI% < 5%) | 15.59% | 47.19 | 30.54 | 48.87 | 60.17 | 20.98% | 43.83 | 6.75% | 240 to 242 | 23.90 | 25.86 | 6.01% | GI% (EKVX): 25.93%; GI% (NCI-H522): – (GI% < 5%); GI% (NCI-H23): 17.94%; GI% (HOP-62): – (GI% < 5%); GI% (HOP-92): – (GI% < 5%); GI% (NCI-H322M): – (GI% < 5%)
2 | COc1ccc2c(c1)C(=NNC(=O)COc1c(OC)cccc1-c1nc3ccccc3s1)C(=O)N2 [Compound 9i, 2-(2-(Benzo[d]thiazol-2-yl)-6-methoxyphenoxy)-N′-(5-methoxy-2-oxoindolin-3-ylidene)acetohydrazide] | – (GI% < 5%) | – (GI% < 5%) | 9.98% | 20.14 | 11.59 | – (GI% < 5%) | 10.58 | – (GI% < 5%) | – (GI% < 5%) | 45.30 | 21.95 | 47.68 | 44.24 | – (GI% < 5%) | 43.62 | – (GI% < 5%) | 144 to 146 | 29.04 | 18.26 | – (GI% < 5%) | GI% (EKVX): 24.10%; GI% (NCI-H522): 7.04%; GI% (NCI-H23): 11.65%; GI% (HOP-62): – (GI% < 5%); GI% (HOP-92): 31.66%; GI% (NCI-H322M): 5.89%
